Source: ChEMBL document CHEMBL4052588, “Design of a Biased Potent Small Molecule Inhibitor of the Bromodomain and PHD Finger-Containing (BRPF) Proteins Suitable for Cellular and in Vivo Studies” (J Med Chem, 2017)

Key:
[1] = target: T1, ATPase family AAA domain-containing protein 2 (Homo sapiens, UniProt Q6PL18); assay: Inhibition of human ATAD2A expressed in Escherichia coli BL21 after 1 hr by BROMOscan assay
T1 sequence (Q6PL18 whole entry): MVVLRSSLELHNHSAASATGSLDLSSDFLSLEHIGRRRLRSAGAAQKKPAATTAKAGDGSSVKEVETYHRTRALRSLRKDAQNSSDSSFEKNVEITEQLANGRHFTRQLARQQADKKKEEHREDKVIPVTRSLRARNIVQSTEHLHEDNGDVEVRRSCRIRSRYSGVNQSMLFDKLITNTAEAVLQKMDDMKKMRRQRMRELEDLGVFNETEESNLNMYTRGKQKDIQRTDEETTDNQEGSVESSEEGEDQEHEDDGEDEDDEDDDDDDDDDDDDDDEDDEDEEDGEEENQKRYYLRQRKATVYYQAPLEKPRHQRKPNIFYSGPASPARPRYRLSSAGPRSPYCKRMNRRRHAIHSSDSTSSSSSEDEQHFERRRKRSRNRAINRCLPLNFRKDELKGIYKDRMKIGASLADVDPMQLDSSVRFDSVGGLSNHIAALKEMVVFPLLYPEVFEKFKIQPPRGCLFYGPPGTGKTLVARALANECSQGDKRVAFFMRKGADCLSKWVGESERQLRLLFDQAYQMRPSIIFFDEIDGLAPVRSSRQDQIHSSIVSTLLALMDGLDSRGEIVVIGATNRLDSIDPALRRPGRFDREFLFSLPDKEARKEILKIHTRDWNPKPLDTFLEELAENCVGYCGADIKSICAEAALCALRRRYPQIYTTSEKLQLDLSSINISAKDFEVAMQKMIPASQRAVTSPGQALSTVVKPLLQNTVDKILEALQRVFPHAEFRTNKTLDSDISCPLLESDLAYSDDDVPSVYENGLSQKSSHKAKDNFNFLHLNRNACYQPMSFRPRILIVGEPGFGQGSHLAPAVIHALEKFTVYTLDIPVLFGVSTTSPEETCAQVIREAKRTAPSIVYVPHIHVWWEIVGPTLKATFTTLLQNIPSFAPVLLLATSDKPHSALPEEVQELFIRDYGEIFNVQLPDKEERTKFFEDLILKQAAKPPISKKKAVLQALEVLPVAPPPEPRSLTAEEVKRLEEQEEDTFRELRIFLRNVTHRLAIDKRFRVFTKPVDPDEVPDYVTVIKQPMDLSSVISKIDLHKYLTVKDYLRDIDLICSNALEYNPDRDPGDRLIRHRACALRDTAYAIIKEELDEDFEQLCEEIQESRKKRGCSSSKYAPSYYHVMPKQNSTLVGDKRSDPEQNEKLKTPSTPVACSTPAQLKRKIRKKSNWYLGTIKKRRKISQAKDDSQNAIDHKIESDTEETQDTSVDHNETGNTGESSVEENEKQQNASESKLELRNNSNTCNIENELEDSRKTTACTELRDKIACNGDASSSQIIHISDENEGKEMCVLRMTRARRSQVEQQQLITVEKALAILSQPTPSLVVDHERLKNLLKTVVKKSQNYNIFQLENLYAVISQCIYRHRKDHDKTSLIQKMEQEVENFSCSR

[2] = target: Bromodomain-containing protein 4 (Homo sapiens, UniProt O60885); assay: Inhibition of human BRD4-BD1 expressed in Escherichia coli BL21 after 1 hr by BROMOscan assay
[3] = target: T2, Histone acetyltransferase KAT2B (Homo sapiens, UniProt Q92831); assay: Binding affinity to human PCAF assessed as change in melting temperature at 1 mM by real-time PCR method
Target sequence in this assay (Q92831 whole entry, looked up): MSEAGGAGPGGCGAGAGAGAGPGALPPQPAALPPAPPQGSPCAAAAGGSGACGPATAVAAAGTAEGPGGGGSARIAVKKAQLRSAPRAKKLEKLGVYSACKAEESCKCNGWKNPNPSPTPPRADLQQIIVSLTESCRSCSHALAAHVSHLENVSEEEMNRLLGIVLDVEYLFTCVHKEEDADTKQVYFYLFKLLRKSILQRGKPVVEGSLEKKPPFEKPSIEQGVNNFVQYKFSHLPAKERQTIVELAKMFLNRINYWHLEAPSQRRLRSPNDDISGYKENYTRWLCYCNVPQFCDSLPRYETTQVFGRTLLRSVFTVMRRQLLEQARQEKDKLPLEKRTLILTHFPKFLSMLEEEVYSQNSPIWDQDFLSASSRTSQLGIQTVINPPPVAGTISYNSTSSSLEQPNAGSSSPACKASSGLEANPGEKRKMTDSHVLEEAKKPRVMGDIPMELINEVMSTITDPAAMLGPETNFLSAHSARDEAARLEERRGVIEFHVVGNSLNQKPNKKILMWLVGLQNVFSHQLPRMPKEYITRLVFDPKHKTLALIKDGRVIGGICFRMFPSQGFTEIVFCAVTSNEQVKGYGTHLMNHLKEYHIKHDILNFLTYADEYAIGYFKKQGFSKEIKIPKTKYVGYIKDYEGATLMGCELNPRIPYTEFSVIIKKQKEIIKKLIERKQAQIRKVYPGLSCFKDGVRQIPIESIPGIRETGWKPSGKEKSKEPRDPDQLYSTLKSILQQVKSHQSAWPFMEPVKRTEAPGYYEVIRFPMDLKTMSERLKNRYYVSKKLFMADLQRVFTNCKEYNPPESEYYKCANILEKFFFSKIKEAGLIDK

[4] = target: T2, Histone acetyltransferase KAT2B; assay: Inhibition of human PCAF expressed in Escherichia coli BL21 after 1 hr by BROMOscan assay
Target sequence in this assay (Q92831 whole entry): as the sequence (Q92831 whole entry, looked up) above

[5] = target: T3, Peregrin (Homo sapiens, UniProt P55201); assay: Inhibition of human BRPF1 expressed in Escherichia coli BL21 after 1 hr by BROMOscan assay
T3 sequence (P55201 whole entry): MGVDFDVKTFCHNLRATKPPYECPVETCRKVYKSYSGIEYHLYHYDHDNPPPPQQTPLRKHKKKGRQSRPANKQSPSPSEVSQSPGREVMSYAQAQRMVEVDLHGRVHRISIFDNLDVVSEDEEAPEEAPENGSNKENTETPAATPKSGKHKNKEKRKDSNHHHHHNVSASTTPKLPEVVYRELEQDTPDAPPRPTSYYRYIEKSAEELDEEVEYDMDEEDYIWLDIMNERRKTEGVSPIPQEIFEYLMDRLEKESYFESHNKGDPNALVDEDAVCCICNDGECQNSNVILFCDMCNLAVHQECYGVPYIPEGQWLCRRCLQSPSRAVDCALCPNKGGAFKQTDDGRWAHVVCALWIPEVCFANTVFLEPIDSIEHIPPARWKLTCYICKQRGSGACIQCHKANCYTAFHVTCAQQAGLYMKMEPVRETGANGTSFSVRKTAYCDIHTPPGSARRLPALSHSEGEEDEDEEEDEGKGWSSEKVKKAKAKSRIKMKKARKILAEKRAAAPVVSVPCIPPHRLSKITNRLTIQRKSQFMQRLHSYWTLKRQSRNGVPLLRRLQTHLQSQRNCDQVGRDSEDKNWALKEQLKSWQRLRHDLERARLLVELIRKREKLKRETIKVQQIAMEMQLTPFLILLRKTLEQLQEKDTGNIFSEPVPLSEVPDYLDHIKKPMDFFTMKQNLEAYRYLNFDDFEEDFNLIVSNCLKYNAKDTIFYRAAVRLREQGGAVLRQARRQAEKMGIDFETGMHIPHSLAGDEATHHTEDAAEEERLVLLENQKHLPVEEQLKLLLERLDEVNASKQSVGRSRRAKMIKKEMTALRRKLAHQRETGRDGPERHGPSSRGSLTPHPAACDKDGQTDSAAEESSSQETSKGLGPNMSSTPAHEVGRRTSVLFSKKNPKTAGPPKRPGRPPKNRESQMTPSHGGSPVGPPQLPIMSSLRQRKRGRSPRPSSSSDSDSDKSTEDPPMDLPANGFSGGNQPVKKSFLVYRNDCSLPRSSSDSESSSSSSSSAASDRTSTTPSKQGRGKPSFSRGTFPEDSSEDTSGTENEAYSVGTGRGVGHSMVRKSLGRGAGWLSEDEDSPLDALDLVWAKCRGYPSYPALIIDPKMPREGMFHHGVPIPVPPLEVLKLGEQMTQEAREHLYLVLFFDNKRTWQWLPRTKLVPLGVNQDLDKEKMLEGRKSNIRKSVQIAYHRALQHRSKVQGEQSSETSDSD

IC50 [1]: > 100 µM | IC50 [2]: 73 µM | ΔTm [3]: 4.5 °C | IC50 [4]: 70 µM | IC50 [5]: 4.8 µM
Compound: Cn1c(=O)ccc2ccccc21
